The values that follow come from patent EP3760204A1, “MEDICAMENT FOR PREVENTION OR TREATMENT OF HUNTINGTON'S DISEASE” (Medizinische Universität Graz, priority 2019, dated 2021).

Assay [1] has as its system HepG2 cells. In words: Autophagic flux assay (LC3 II Western blot, with or without chloroquine) in HepG2 cells. It is filed as cell-based, human. As to conditions: 50µM hyperforin vs ethanol vehicle, Figure 6A. As to the method: (§1) Western blot: Protein lysate was generated by homogenization (Magnalyzer, Roche) of tissue or cell pellet in homogenization buffer with protease and phosphatase inhibitors (Halt tablets, Invitrogen). After homogenization, lysates were sonicated 2x for 10" each. Lysates were then centrifuged for 10 min at 4°C and the supernatant was subjected to BCA protein estimation (Thermo Fisher). Equal amounts of lysate were loaded to self-made acrylamide gels. After separation, the protein was transferred to a PVDF membrane with semi-dry transfer.
A general note: A western blot detects proteins with antibodies after separation by electrophoresis.

A further assay relates to TFEB. Put plainly: LC3 II induction after TFEB knockdown (siTFEB) in HepG2 cells. It is filed as cell-based, human. As to conditions: 50µM, +/- chloroquine, Figure 9. The procedure: as §1
The test system of the next assay is alpha-1-antitrypsin. In words: Pathological alpha-1-antitrypsin (Z-allele) accumulation in transfected HeLa cells. It is filed as cell-based, human. As to conditions: HeLa cells transfected with PXR/RXR and Z-allele of alpha-1-antitrypsin, 50µM, 24h; Figure 10. The procedure:
as §1

The test system of assay [2] is HepG2 cells. In words: pGFP-RFP-LC3 autophagic flux assay in transfected HepG2 cells. As to conditions: fed condition, 50µM, Figures 3C, 6C.

Take hyperforin: the “LC3 II protein” value with HepG2 cells [1] is recorded as “induces”. For the same substance, the “LC3 II in the presence of TFEB” value in the assay on TFEB (non-targeting control (NT) HepG2 cells) was “induces”. In addition, the “LC3 II induction in siTFEB cells” value in the assay with TFEB (siTFEB HepG2 cells) is given as “blunted”. The “pathological A1AT accumulation” value in the assay with alpha-1-antitrypsin is “robustly decreases”. Further, the “autophagic flux (GFP-RFP-LC3 dots)” value in the assay on HepG2 cells [2] is “induced autophagic flux”.
